Experimental data as given in patent publication US7947854B2, “Bis-cationic compounds and use thereof” (The University of Sydney, priority 2003, dated 2011).
Like-named read-outs stand apart in the source and are kept apart here.

Experiments:
[1] = test system: secreted phospholipase B (PLB activity); experiment: Radiometric assay, secreted PLB activity; format: biochemical, Cryptococcus neoformans H99
Experimental: (§1) Fungal isolates and media. […] Isolate H99 was kindly supplied by Dr. Gary Cox (Duke University Medical Center, Durham, N.C., USA), and subcultured onto Sabouraud dextrose agar (SDA) at 30° C.
(§2) Preparation of supernatants containing secreted phospholipase activities. Isolate H99 was grown to confluence on SDA in 16 cm diameter Petri dishes for 72 h at 30° C. in air. Cells scraped from 10-20 dishes were washed sequentially with isotonic saline and imidazole buffer (10 mM imidazole, 2 mM CaCl2, 2 mM Mg Cl2, 56 mM D-Glucose, made up in isotonic saline, pH 5.5), resuspended in a volume of this buffer of about 10% of the cell volume, and incubated for 24 h at 37° C. The cell-free supernatant was separated by centrifugation as previously described and stored at −70° C.
Radiometric assay method for phospholipases. Enzyme activities were measured as described previously in a final volume of 125 μL at 37° C. For the determination of secreted PLB activity, carrier dipalmitoyl phosphatidylcholine (DPPC, final concentration 800 μM) and 1,2-di[1-^14C] palmitoyl phosphatidylcholine (20,000 dpm) were dried under nitrogen and suspended in 125 mM imidazole acetate buffer (assay buffer, pH 4.0) by sonication using a Branson 450 sonifier. The reaction time was 22 min, using 1 μg total protein and PLB activity was determined by the rate of decrease of the radiolabelled PC substrate, with appearance of the label in free fatty acid. This assay also simultaneously allows for the determination of phospholipase A, C and D activities. These activities were measured by the appearance of radiolabel from PC in Lyso PC, diacylglycerol and phosphatidic acid, respectively.
(§3) All reactions were terminated by adding 0.5 mL of chloroform:methanol (2:1 v/v). The reaction products were extracted by the method as disclosed in Bligh, E. C. and W. J. Dyer. 1959 ‘A rapid method of total lipid extraction and purification.’ Can. J. Biochem. Physiol. 37:911-917, separated by TLC and quantified as previously described. In the case of PLC activity, the TLC plates were developed in petroleum ether (BP 60-80° C.): diethyl ether: acetic acid (90:15:1, v/v/v) instead of chloroform:methanol:water (65:25:4, v/v/v).
(§4) Preparation of inhibitors and use in assays. The following compounds were tested (for structures, see FIG. 2): compound 1, 1,12-bis(tributylphosphonium)dodecane dibromide (Fluka AG, Buchs, Switzerland); compound 2, 1,10-bis(tributylammonium)-decane dibromide; compound 3, 1,12-bis(tributylammonium)do-decane dibromide (both synthesised in-house); compound 4, 1,10-bis(trimethylammonium)decane dibromide [“decamethonium”] (Sigma, St. Louis Mo., USA). All compounds were prepared as stock solutions of 700 μM in assay buffer containing 5 mM EDTA, which was then diluted serially with buffer to obtain solutions of 70, 7, 0.7 and 0.07 μM. In each assay, 45 μL of these solutions was used, and the final volume of 125 μL was made up of substrate, enzyme and buffer. The radiometric assay was carried out as above. Inhibition was calculated as the percent of substrates (DPPC or Lyso-PC) remaining in the case of PLB and LPL activities, or of DPPC produced, in the case of the LPTA activity. The amounts converted, or produced, in the inhibitor-free control were normalised to 100%, and the inhibition calculated against it. All assays were done in triplicate.
(§5) Under these conditions only PLB, LPL and LPTA activities (both secreted and cell-associated) were measured. Initially, compounds deemed to be potential inhibitors were assayed at 25 and 250 μM. Those showing some inhibition were then also assayed at 2.5 and 0.25 μM.

[2] = test system: secreted phospholipase B (LPL/LPTA activities); experiment: Radiometric assay, secreted LPL and LPTA activities (Lyso assay); format: biochemical, Cryptococcus neoformans H99
Experimental: as §1, §2
Secreted LPL and LPTA activities were measured simultaneously in a reaction mixture containing 1-[^14C]palmitoyl lyso-PC (25,000 dpm) and carrier lyso-PC (final concentration 200 μM) in assay buffer. The reaction time was […] with 1 μg of total protein and LPL activity was measured by the rate of loss of 1-[^14C]palmitoyl lyso-PC with release of radiolabelled fatty acids. LPTA activity was estimated from the rate of formation of radiolabelled PC.
as §3, §4, §5

[3] = test system: Candida albicans ATCC 10231; experiment: Antifungal susceptibility testing, microdilution MIC; format: cell-based; details: Candida albicans
Experimental: (§6) Antifungal susceptibility testing. The antifingal activity of the compounds was measured by a standard microdilution method. […] The fungal strains tested included Cryptococcus neoformans H99, Cryptococcus neoformans ATCC 90112 and Candida albicans ATCC 10231. All tests were performed in duplicate.
(§7) A range of cationic compounds were assayed for antifungal activity in a standardised serial dilution sensitivity test against C. neoformans ([…]) and C. Albicans (ATCC 10231).

[4] = test system: Cryptococcus neoformans ATCC 90112; experiment: as above; format: cell-based; details: Cryptococcus neoformans
Experimental: as §6, §7

erythrocyte = format: cell-based; details: 37° C., 1 h
Experimental: Human blood was collected in 10 mL Vacutainer tubes containing potassium-EDTA as anticoagulant. The blood from each vacutainer was transferred to a 50 mL centrifuge tube and the cells washed three times with calcium- and magnesium-free phosphate buffered saline (PBS) (Gibco) by centrifugation at 2000×g for 15 min. The third supernatant was clear and colourless. Cells were stored in PBS for up to two weeks. The cell suspension in PBS (0.5 mL) was mixed with a stock solution of test substance (0.5 mL) at the appropriate concentration (final erythrocyte concentration of approx. 0.5×10^9 per mL). The mixtures were incubated at 37° C. for 1 h with gentle shaking, then centrifuged at 2000×g for 10 min. The supernatant was diluted 10-fold with PBS and the optical density measured at 540 nm. The values for 0% and 100% lysis were determined by incubating cells with PBS or 0.1% Triton X-100 (in water), respectively. Assays were carried out in triplicate.

[5] = ATCC10231, Table 7, read-out: MIC (μM) C. alb. (10231)
[6] = ATCC90112, Table 7, read-out: MIC (μM) Crypto. (ATCC 90112)
[7] = ATCC10231, read-out: MIC (μM) C. alb. (10231)
[8] = ATCC90112, read-out: MIC (μM) Crypto. (ATCC 90112)

Compound	PLB assay (% inhibition) ([1]; 0.25 μM) [%]	PLB assay (% inhibition) ([1]; 2.5 μM) [%]	PLB assay (% inhibition) ([1]; 25 μM) [%]	PLB assay (% inhibition) ([1]; 250 μM) [%]	Lyso assay (% inhibition) LPL ([2]; 0.25 μM) [%]	Lyso assay (% inhibition) LPTA ([2]; 0.25 μM) [%]	Lyso assay (% inhibition) LPL ([2]; 2.5 μM) [%]	Lyso assay (% inhibition) LPTA ([2]; 2.5 μM) [%]	Lyso assay (% inhibition) LPL ([2]; 25 μM)	Lyso assay (% inhibition) LPTA ([2]; 25 μM)	Lyso assay (% inhibition) LPL ([2]; 250 μM)	Lyso assay (% inhibition) LPTA ([2]; 250 μM)	MIC [3, 5] [µM]	MIC [4, 6] [µM]	Haemolytic assay (%) (erythrocyte; 3.5 μM)	Haemolytic assay (%) (erythrocyte; 35 μM)	Haemolytic assay (%) (erythrocyte; 88 μM)	Haemolytic assay (%) (erythrocyte; 175 μM)	Haemolytic assay (%) (erythrocyte; 350 μM)	MIC [3, 7] [µM]	further results
CCCCCCCCCCCCCCCC[P+](CCCC)(CCCC)CCCC	0	15	37	92	0	0	0	0	15%	5%	98%	95%	2.2	≤ 0.6	2.5%	4%	7%	32%	100%	–	–
C[N+](C)(C)CCCCCCCCCCCC[N+](C)(C)C [1,12-Bis-(trimethylammonium)dodecane dibromide]	–	–	2	3	–	–	–	–	250 μM = 0% 25 μM = 0% 2.5 μM = n.d. 0.25 μM = n.d.	4%	250 μM = 0% 25 μM = 0% 2.5 μM = n.d. 0.25 μM = n.d.	5%	–	–	350 μM = 0% 175 μM = 0% 88 μM = 0% 35 μM = 0% 3.5 μM = 0%	350 μM = 0% 175 μM = 0% 88 μM = 0% 35 μM = 0% 3.5 μM = 0%	350 μM = 0% 175 μM = 0% 88 μM = 0% 35 μM = 0% 3.5 μM = 0%	350 μM = 0% 175 μM = 0% 88 μM = 0% 35 μM = 0% 3.5 μM = 0%	350 μM = 0% 175 μM = 0% 88 μM = 0% 35 μM = 0% 3.5 μM = 0%	175	MIC [4, 8]: 175 µM
CCC[N+](CCC)(CCC)CCCCCCCCCCCC[N+](CCC)(CCC)CCC [1,12-Bis-(tripropylammonium)dodecane dibromide]	5	6	71	80	0	0	0	0	5%	20%	8%	10%	10	5.5	–	–	–	–	–	–	PLB assay (% inhibition) ([1]; 6.7 μM): 42%; PLB assay (% inhibition) ([1]; 12.5 μM): 68%
CCCC[N+]1(CCCCCCCCCCCC[N+]2(CCCC)CCCC2)CCCC1 [C12-bis-N-butyl-pyro. dibromide, 1,12-Bis-(N-butylpyrrolidinium)dodecane dibromide]	–	–	–	–	–	–	–	–	–	–	–	–	88	88	350 μM = 0% 175 μM = 0% 88 μM = 0% 35 μM = 0% 3.5 μM = 0%	350 μM = 0% 175 μM = 0% 88 μM = 0% 35 μM = 0% 3.5 μM = 0%	350 μM = 0% 175 μM = 0% 88 μM = 0% 35 μM = 0% 3.5 μM = 0%	350 μM = 0% 175 μM = 0% 88 μM = 0% 35 μM = 0% 3.5 μM = 0%	350 μM = 0% 175 μM = 0% 88 μM = 0% 35 μM = 0% 3.5 μM = 0%	–	–
C[N+]1(CCCCCCCCCCCC[N+]2(C)CCCC2)CCCC1 [C12-bis-N-methyl-pyro. dibromide, 1,12-Bis-(1-methylpyrrolidinium)dodecane dibromide]	–	–	0	9	–	–	–	–	250 μM = 0% 25 μM = 0% 2.5 μM = n.d. 0.25 μM = n.d.	250 μM = 0% 25 μM = 0% 2.5 μM = n.d. 0.25 μM = n.d.	250 μM = 0% 25 μM = 0% 2.5 μM = n.d. 0.25 μM = n.d.	250 μM = 0% 25 μM = 0% 2.5 μM = n.d. 0.25 μM = n.d.	–	–	–	–	–	–	–	175	MIC [4, 8]: 175 µM
